Test results from US11166460B2, “α-amino acrylate microbicide, and preparation method therefor and uses thereof” (priority 2017, dated 2021).
Converted amounts (≈) assume the structure as drawn. Where two headings read alike, the source gives them in different places.

Assays:
[1] = tested on: tobacco mosaic virus (TMV); assay: Anti-TMV inducing activity (induction mode), tobacco seedlings; format: in vivo; conditions: Tobacco mosaic virus, read-out: Anti-TMV activity, Induction effect (inhibition), 100 μg/mL, tobacco seedlings
[2] = tested on: wheat Gibberella zeae; assay: microbe, parasite or virus in culture; format: cell-based; conditions: Fusarium graminearum
[3] = tested on: Sclerotinia sclerotiorum; assay: microbe, parasite or virus in culture; format: cell-based; conditions: Sclerotinia sclerotiorum; for inhibition at 50 µg/mL: 50 μg/mL
[4] = tested on: Botrytis cinerea; assay: Fungicidal activity, fungi growth rate method, BC; format: cell-based; conditions: Botrytis cinerea, 50 μg/mL
[5] = tested on: Phytophthora infestans (Mont) de Bary; assay: microbe, parasite or virus in culture; format: cell-based; conditions: Phytophthora infestans
[6] = tested on: tobacco mosaic virus (TMV); assay: Anti-TMV protective activity (protection mode), live friction inoculation on tobacco seedlings; format: in vivo; conditions: Tobacco mosaic virus, read-out: Anti-TMV activity, Protection effect (inhibition)
[7] = tested on: Physalospora piricola; assay: Fungicidal activity, fungi growth rate method, PP; format: cell-based; conditions: 50 μg/mL; read-out: Fungicidal activity, inhibition, PP
[8] = tested on: Alternaria solani; assay: Fungicidal activity, fungi growth rate method, AS; format: cell-based; conditions: Alternaria solani, 50 μg/mL
[9] = tested on: Pellicularia sasakii; assay: Fungicidal activity, fungi growth rate method, PS; format: cell-based; conditions: 50 μg/mL; read-out: Fungicidal activity, inhibition, PS
[10] = tested on: tobacco mosaic virus (TMV); assay: Anti-TMV curative activity (treatment mode), live friction inoculation on tobacco seedlings; format: in vivo; conditions: Tobacco mosaic virus, read-out: Anti-TMV activity, Curative effect (inhibition), 100 μg/mL, tobacco seedlings, checked on seventh day
[11] = tested on: Cercospora arachidicola; assay: Fungicidal activity, fungi growth rate method, CA; format: cell-based; conditions: Mycosphaerella arachidis; 50 μg/mL; read-out: Fungicidal activity, inhibition, CA
[12] = tested on: Rhizoctonia cerealis; assay: Fungicidal activity, fungi growth rate method, RC; format: cell-based; conditions: Ceratobasidium cereale; 50 μg/mL; read-out: Fungicidal activity, inhibition, RC
[13] = tested on: tobacco mosaic virus (TMV); assay: Anti-TMV inactivation activity (inactivation mode), compound mixed with TMV before inoculation of tobacco leaves; format: in vivo; conditions: Tobacco mosaic virus, read-out: Anti-TMV activity, Inactivation effect (inhibition)
[14] = read-out: Fungicidal activity, inhibition, GZ
[15] = read-out: Fungicidal activity, inhibition, SS
[16] = read-out: Fungicidal activity, inhibition, BC
[17] = read-out: Fungicidal activity, inhibition, PI
[18] = read-out: Fungicidal activity, inhibition, AS

## O=C(OCc1ccc(Br)cc1)/C(=C/c1ccccc1)NC(=O)c1ccccc1 [Compound 61, N-[(1Z)-2-phenyl-1-[(4-bromophenymethoxyl)carbonyl]ethenyl]benzamide]
[1]
  inhibition at 100 µg/mL: 0%
[2]; [14]
  inhibition at 50 µg/mL: 29%
[3]; [15]
  inhibition at 50 µg/mL: 44%
other
  melting point: 168 to 170 °C
[4]; [16]
  inhibition at 50 µg/mL: 18%
[5]; [17]
  inhibition at 50 µg/mL: 11%
[6]
  inhibition at 100 µg/mL: 16%
[7]
  inhibition at 50 µg/mL: 6%
[8]; [18]
  inhibition at 50 µg/mL: 25%
[9]
  inhibition at 50 µg/mL: 9%
[10]
  inhibition at 100 µg/mL: 0%
[11]
  inhibition at 50 µg/mL: 12%
[12]
  inhibition at 50 µg/mL: 13%
[13]
  inhibition at 100 µg/mL: 13%

## Cc1snnc1/C=C1\N=C(c2ccccc2)OC1=O [Compound 78, (4Z)-4-[4-(5-methyl-1,2,3-thiadiazol)ethenyl]-2-phenyl-1,3-oxazol-5-(4H)-one]
[1]
  inhibition at 100 µg/mL: 68%
[2]; read-out: Fungicidal activity (inhibition) against GZ: wheat Gibberella zeae
  inhibition at 50 µg/mL: 57%
[2]; [14]
  inhibition at 50 µg/mL: 57%
[3]; [15]
  inhibition at 50 µg/mL: 53%
other
  melting point: 149 to 151 °C
[4]; read-out: Fungicidal activity (inhibition) against BC: Botrytis cinerea
  inhibition at 50 µg/mL: 26%
[4]; [16]
  inhibition at 50 µg/mL: 26%
[5]; read-out: Fungicidal activity (inhibition) against PI: Phytophthora infestans (Mont) de Bary
  inhibition at 50 µg/mL: 26%
[5]; [17]
  inhibition at 50 µg/mL: 26%
[6]
  inhibition at 100 µg/mL: 0%
[7]
  inhibition at 50 µg/mL: 15%
[8]; read-out: Fungicidal activity (inhibition) against AS: Alternaria solani
  inhibition at 50 µg/mL: 29%
[8]; [18]
  inhibition at 50 µg/mL: 29%
[9]
  inhibition at 50 µg/mL: 3%
[10]
  inhibition at 100 µg/mL: 0%
[11]
  inhibition at 50 µg/mL: 21%
[12]
  inhibition at 50 µg/mL: 18%
[13]
  inhibition at 100 µg/mL: 47%

## O=C(NC(Cc1ccccc1)C(=O)N1CCC(c2ccccc2)CC1)c1ccccc1 (stereo not shown) [Compound 48, N-[1-[[4-(4-phenyl)-1-piperidinyl]carbonyl]-2-phenylethyl]benzamide]
[1]
  inhibition at 100 µg/mL: 27%
[2]; [14]
  inhibition at 50 µg/mL: 11%
[3]; [15]
  inhibition at 50 µg/mL: 64%
other
  melting point: 143 to 144 °C
[4]; [16]
  inhibition at 50 µg/mL: 17%
[5]; [17]
  inhibition at 50 µg/mL: 23%
[6]
  inhibition at 100 µg/mL: 2%
[7]
  inhibition at 50 µg/mL: 14%
[8]; [18]
  inhibition at 50 µg/mL: 18%
[9]
  inhibition at 50 µg/mL: 17%
[10]
  inhibition at 100 µg/mL: 25%
[11]
  inhibition at 50 µg/mL: 9%
[12]
  inhibition at 50 µg/mL: 11%
[13]
  inhibition at 100 µg/mL: 32%

## O=C(N/C(=C\c1ccccc1)C(=O)N1CCC(O)(c2ccc(Br)cc2)CC1)c1cccc([N+](=O)[O-])c1 [Compound 11, (Z)-N-[1-[[4-(4-bromophenyl)-4-hydroxy-1-piperidinyl]carbonyl]-2-phenylethenyl]-3-nitrobenzamide]
[1]
  inhibition at 100 µg/mL: 33%
[2]; [14]
  inhibition at 50 µg/mL: 34%
[3]; read-out: EC90 against S. sclerotiorum in vitro
  EC90: 127 µg/mL (≈ 232 µM)
[3]; read-out: Fungicidal activity (inhibition) against SS: Sclerotinia sclerotiorum
  inhibition at 50 µg/mL: 100%
[3]; [15]
  inhibition at 50 µg/mL: 100%
other
  melting point: 128 to 129 °C
[4]; [16]
  inhibition at 50 µg/mL: 12%
[5]; [17]
  inhibition at 50 µg/mL: 14%
[6]
  inhibition at 100 µg/mL: 5%
[7]
  inhibition at 50 µg/mL: 21%
[8]; [18]
  inhibition at 50 µg/mL: 24%
[9]
  inhibition at 50 µg/mL: 8%
[10]
  inhibition at 100 µg/mL: 78%
[11]
  inhibition at 50 µg/mL: 25%
[12]
  inhibition at 50 µg/mL: 24%
[13]
  inhibition at 100 µg/mL: 71%

## O=C(N/C(=C\c1ccccc1)C(=O)N1CCC(c2nc(CO)cs2)CC1)c1ccccc1 [Compound 31, (Z)-N-[1-[[[4-[2-(4-hydroxymethylthiazol)]]-1-piperidinyl]carbonyl]-2-phenylethenyl]benzamide]
[1]
  inhibition at 100 µg/mL: 33%
[2]; [14]
  inhibition at 50 µg/mL: 7%
[3]; [15]
  inhibition at 50 µg/mL: 56%
other
  melting point: 118 to 120 °C
[4]; [16]
  inhibition at 50 µg/mL: 7%
[5]; [17]
  inhibition at 50 µg/mL: 24%
[6]
  inhibition at 100 µg/mL: 0%
[7]
  inhibition at 50 µg/mL: 0%
[8]; [18]
  inhibition at 50 µg/mL: 21%
[9]
  inhibition at 50 µg/mL: 5%
[10]
  inhibition at 100 µg/mL: 0%
[11]
  inhibition at 50 µg/mL: 23%
[12]
  inhibition at 50 µg/mL: 16%
[13]
  inhibition at 100 µg/mL: 0%
